Data as given in PMC12817916, “A small-molecule HSP90 inhibitor, NVP-HSP990, alleviates rotavirus infection” (Journal of Virology, 2025).

Tested on: RV (Wa or SA11 strains)
Test: RV replication in Caco-2 cells at varying MOI and timing of drug addition (PFA)
Assay type: cell-based, Rotavirus
Procedure: Rhesus monkey embryo kidney cell line MA104 cells (ATCC: CRL-2378.1) were provided by Dr. Elschner (Friedrich-Loeffler-Institute). Human intestinal epithelial cell lines Caco-2 cells (ATCC: HTB-37) and HT-29 cells (ATCC: HTB-38) were from ATCC and kept in our institute. All the cells were cultured in complete DMEM (Dulbecco’s modified Eagle medium [Gibco, USA] plus 10% [vol/vol] fetal bovine serum [FBS] [Gibco, USA] and 1% penicillin/streptomycin [Gibco, USA]) at 37°C with 5% CO2. RV Wa (G1P[8]) and SA11 (G3P[2]) strains were gifted by Professor Duan Zhaojun from the China Center for Disease Control and Prevention (Beijing, China) and propagated in MA104 cells. RV EDIM strain G16P[16] was gifted by Professor Wan Jianwei in Christophe Merieux Laboratory (Beijing) and propagated in BALB/c suckling mice. For RV infection in vitro, the viruses were diluted in DMEM, activated with 10 µg/mL trypsin (Gibco, USA) for 30 min at 37°C, and then added to target cells previously washed once with DMEM. After 1 h of incubation at 37°C, the inoculum was removed; the cells were then washed twice with DMEM (without FBS) and incubated with DMEM (without FBS) at 37°C, which was denoted as 0 h post-infection (h p.i.). HSP90 inhibitors (NVP-HSP990, GA, and 17-AAG) and Ribavirin (Selleck, USA) were dissolved in DMSO (Sigma, USA). The drugs were administered with indicated concentrations at 0 h p.i. in vitro unless otherwise stated, or orally administered in 10 µL volume using a pipette tip with the indicated quantity plus 90% (vol/vol) corn oil.
(A) Caco-2 cells were infected with RV (Wa or SA11 strains) at varying MOIs (0.001–10), followed by treatment with 100 nM NVP-HSP990 or an equal volume of DMSO (as a control) for 24 h. Viral replication was assessed using PFA. (B) Schematic diagram illustrating the timing of NVP-HSP990 addition and removal. (C) Caco-2 cells were infected with RV (MOI = 1) and treated with 100 nM NVP-HSP990 or with DMSO as control at indicated infection periods as shown in panel B. Viral replication was tested with PFA at 20 h p.i. (D) Caco-2 cells were infected with RV (MOI = 1) and treated with 100 nM HSP990 at 0, 4, 8, 12 h p.i. or treated with DMSO at 0 h p.i. Virus replication was tested with PFA at 24 h p.i. (E) Caco-2 cells were infected with RV (MOI = 1) and further cultivated with DMEM containing 100 nM NVP-HSP990 or DMSO as control for 18 h. Then the infected cells were harvested for qPCR analysis of the expression of RV genes encoding the VP2, VP6, NSP4, and NSP5 proteins. (F) Caco-2 cells were mock-infected with PBS or infected with RV (MOI = 1) and further cultivated with DMEM containing 100 nM NVP-HSP990 or DMSO as control for 18 h. Then the cells were harvested for WB analysis of RV structural proteins VP6 and VP7. […]

COc1cccc(-c2cc(F)ccc2[C@H]2Cc3nc(N)nc(C)c3C(=O)N2)n1 [NVP-HSP990]
inhibitory effect on RV replication (100 nM, administered after RV infection (0 ~ 20 h p.i.), PFA at 20 h p.i.): ~100 fold | reduction of final level of RV replication (100 nM, administered during RV infection (−1 ~ 0 h p.i.), PFA at 20 h p.i.): ~ 1 fold | inhibition of RV replication across MOIs (Wa or SA11, MOI 0.001 to 10, 100 nM, 24 h p.i., PFA): Robust inhibition | establishment of RV infection or subsequent viral replication (pre-treatment prior to RV infection (−2 ~ −1 h p.i.)): did not significantly interfere
